Data reported in patent US20230340011A1 (Asteroid Therapeutics, priority 2022, published 2023).

Biological target: SREBP-2 (Homo sapiens (Human), UniProt Q12772)
Test: In vitro assay SREBP-2: PathHunter U2OS SREBP-2 Nuclear Translocation Cell Line, U18666A-stimulated
Type: cell-based
Settings: PathHunter U2OS SREBP-2 nuclear translocation cells, U18666A 10 μM, overnight (16 hours)

## C[C@H](CCC(=O)N1CCC(C(NC(=O)C(C)(C)O)C(F)(F)F)CC1)[C@H]1CC[C@H]2[C@@H]3CC=C4C[C@@H](O)CC[C@]4(C)[C@H]3CC[C@]12C (stereo partly drawn) [Example 479, 2-hydroxy-2-methyl-N-(2,2,2-trifluoro-1-(1-((R)-4-((3S,8S,9S,10R,13R,14S,17R)-3-hydroxy-10,13-dimethyl-2,3,4,7,8,9,10,11,12,13,14,15,16,17-tetradecahydro-1H-cyclopenta[a]phenanthren-17-yl)pentanoyl)piperidin-4-yl)ethyl)propanamide]
  IC50: < 250 nM

## C[C@H](CCC(=O)N1CCC(O)(c2ccnnc2)CC1)[C@H]1CC[C@H]2[C@@H]3CC=C4C[C@@H](O)CC[C@]4(C)[C@H]3CC[C@]12C [Example 343, (R)-4-((3S,8S,9S,10R,13R,14S,17R)-3-hydroxy-10,13-dimethyl-2,3,4,7,8,9,10,11,12,13,14,15,16,17-tetradecahydro-1H-cyclopenta[a]phenanthren-17-yl)-1-(4-hydroxy-4-(pyridazin-4-yl)piperidin-1-yl) pentan-1-one]
  IC50: 1000 to 10000 nM

## C[C@H](CCC(=O)N1CC[C@H](NC(=O)c2cnn(C)c2)C1)[C@H]1CC[C@H]2[C@@H]3CC=C4C[C@@H](O)CC[C@]4(C)[C@H]3CC[C@]12C [Example 526, N-[(3S)-1-[(4R)-4-[(1R,3aS,3bS,7S,9aR,9bS,11aR)-7-hydroxy-9a,11a-dimethyl-1H,2H,3H,3aH,3bH,4H,6H,7H,8H,9H,9aH,9bH,10H,11H,11aH-cyclopenta[a]phenanthren-1-yl]pentanoyl]pyrrolidin-3-yl]-1-methyl-1H-pyrazole-4-carboxamide]
  IC50: < 250 nM

## C[C@H](CCC(=O)N1CC[C@H](NC(=O)c2ccncn2)C1)[C@H]1CC[C@H]2[C@@H]3CC=C4C[C@@H](O)CC[C@]4(C)[C@H]3CC[C@]12C [Example 528, N—((S)-1-((R)-4-((3S,8S,9S,10R,13R,14S,17R)-3-hydroxy-10,13-dimethyl-2,3,4,7,8,9,10,11,12,13,14,15,16,17-tetradecahydro-1H-cyclopenta[a]phenanthren-17-yl)pentanoyl)pyrrolidin-3-yl)pyrimidine-4-carboxamide]
  IC50: < 250 nM

## C[C@H](CCC(=O)N1CCC(N2CCOC(C)(C)C2=O)CC1)[C@H]1CC[C@H]2[C@@H]3CC=C4C[C@@H](O)CC[C@]4(C)[C@H]3CC[C@]12C [Example 524, 4-(1-((R)-4-((3S,8S,9S,10R,13R,14S,17R)-3-hydroxy-10,13-dimethyl-2,3,4,7,8,9,10,11,12,13,14,15,16,17-tetradecahydro-1H-cyclopenta[a]phenanthren-17-yl)pentanoyl)piperidin-4-yl)-2,2-dimethylmorpholin-3-one]
  IC50: 250 to 1000 nM

## CC(C)C1(O)CCN(C(=O)CC[C@@H](C)[C@H]2CC[C@H]3[C@@H]4CC=C5C[C@@H](O)CC[C@]5(C)[C@H]4CC[C@]23C)CC1 [Example 149, (R)-4-((3S,8S,9S,10R,13R,14S,17R)-3-hydroxy-10,13-dimethyl-2,3,4,7,8,9,10,11,12,13,14,15,16,17-tetradecahydro-1H-cyclopenta[a]phenanthren-17-yl)-1-(4-hydroxy-4-isopropylpiperidin-1-yl) pentan-1-one]
  IC50: < 250 nM

## CC(=O)N1CC2(C1)CN(C(=O)CC[C@@H](C)[C@H]1CC[C@H]3[C@@H]4CC=C5C[C@@H](O)CC[C@]5(C)[C@H]4CC[C@]13C)C2 [Example 328, (4R)-4-[(1R,3aS,3bS,7S,9aR,9bS,11aR)-7-hydroxy-9a,11a-dimethyl-1H,2H,3H,3aH,3bH,4H,6H,7H,8H,9H,9aH,9bH,10H,11H,11aH-cyclopenta[a]phenanthren-1-yl]-1-{6-acetyl-2,6-diazaspiro[3.3]heptan-2-yl}pentan-1-one]
  IC50: 250 to 1000 nM

## C[C@H](Oc1ccc(CO)nc1)[C@H]1CC[C@H]2[C@@H]3CC=C4C[C@@H](O)CC[C@]4(C)[C@H]3CC[C@]12C [Example 435, (3S,8S,9S,10R,13S,14S,17S)-17-((S)-1-((6-(hydroxymethyl)pyridin-3-yl)oxy)ethyl)-10,13-dim ethyl-2,3,4,7,8,9,10,11,12,13,14,15,16,17-tetradecahydro-1H-cyclopenta[a]phenanthren-3-ol]
  IC50: 250 to 1000 nM

## CNC(=O)c1cccc(OC[C@@H](C)[C@H]2CC[C@H]3[C@@H]4CC=C5C[C@@H](O)CC[C@]5(C)[C@H]4CC[C@]23C)n1 [Example 256, 6-((S)-2-((3S,8S,9S,10R,13S,14S,17R)-3-hydroxy-10,13-dimethyl-2,3,4,7,8,9,10,11,12,13,14,15,16,17-tetradecahydro-1H-cyclopenta[a]phenanthren-17-yl)propoxy)-N-methylpicolinamide]
  IC50: 250 to 1000 nM

## CNC(=O)c1ccc(OC[C@@H](C)[C@H]2CC[C@H]3[C@@H]4CC=C5C[C@@H](O)CC[C@]5(C)[C@H]4CC[C@]23C)nc1 [Example 449, 6-((S)-2-((3S,8S,9S,10R,13S,14S,17R)-3-hydroxy-10,13-dimethyl-2,3,4,7,8,9,10,11,12,13,14,15,16,17-tetradecahydro-1H-cyclopenta[a]phenanthren-17-yl)propoxy)-N-methylnicotinamide]
  IC50: < 250 nM

## CC(=O)N1CCC2(C1)CN(C(=O)CC[C@@H](C)[C@H]1CC[C@H]3[C@@H]4CC=C5C[C@@H](O)CC[C@]5(C)[C@H]4CC[C@]13C)C2 [Example 327, (4R)-4-[(1R,3aS,3bS,7S,9aR,9bS,11aR)-7-hydroxy-9a,11a-dimethyl-1H,2H,3H,3aH,3bH,4H,6H,7H,8H,9H,9aH,9bH,10H,11H,11aH-cyclopenta[a]phenanthren-1-yl]-1-{6-acetyl-2,6-diazaspiro[3.4]octan-2-yl}pentan-1-one]
  IC50: 250 to 1000 nM

## CCCC1(O)CCN(C(=O)CC[C@@H](C)[C@H]2CC[C@H]3[C@@H]4CC=C5C[C@@H](O)CC[C@]5(C)[C@H]4CC[C@]23C)CC1 [Example 148, (R)-4-((3S,8S,9S,10R,13R,14S,17R)-3-hydroxy-10,13-dimethyl-2,3,4,7,8,9,10,11,12,13,14,15,16,17-tetradecahydro-1H-cyclopenta[a]phenanthren-17-yl)-1-(4-hydroxy-4-propylpiperidin-1-yl) pentan-1-one]
  IC50: < 250 nM

## CC(=O)NC1CN(C(=O)CC[C@@H](C)[C@H]2CC[C@H]3[C@@H]4CC=C5C[C@@H](O)CC[C@]5(C)[C@H]4CC[C@]23C)C1 [Example 326, N-{1-[(4R)-4-[(1R,3aS,3bS,7S,9aR,9bS,11aR)-7-hydroxy-9a,11a-dimethyl-1H,2H,3H,3aH,3bH,4H,6H,7H,8H,9H,9aH,9bH,10H,11H,11aH-cyclopenta[a]phenanthren-1-yl]pentanoyl]azetidin-3-yl}acetamide]
  IC50: 250 to 1000 nM

## COC(=O)NC[C@@H](C)[C@H]1CC[C@H]2[C@@H]3CC=C4C[C@@H](O)CC[C@]4(C)[C@H]3CC[C@]12C [Example 463, methyl ((S)-2-((3S,8S,9S,10R,13S,14S,17R)-3-hydroxy-10,13-dimethyl-2,3,4,7,8,9,10,11,12,13,14,15,16,17-tetradecahydro-1H-cyclopenta[a]phenanthren-17-yl)propyl)carbamate]
  IC50: 250 to 1000 nM

## CON(C)C(=O)CC[C@@H](C)[C@H]1CC[C@H]2[C@@H]3CC=C4C[C@@H](O)CC[C@]4(C)[C@H]3CC[C@]12C [Example 1, (R)-4-((3S,8S,9S,10R,13R,14S,17R)-3-hydroxy-10,13-dimethyl-2,3,4,7,8,9,10,11,12,13,14,15,16,17-tetradecahydro-1H-cyclopenta[a]phenanthren-17-yl)-N-methoxy-N-methylpentanamide]
  IC50: < 250 nM

## C[C@H](CCc1ncccc1C(C)(C)O)[C@H]1CC[C@H]2[C@@H]3CC=C4C[C@@H](O)CC[C@]4(C)[C@H]3CC[C@]12C [Example 456, (3S,8S,9S,10R,13R,14S,17R)-17-((R)-4-(3-(2-hydroxypropan-2-yl)pyridin-2-yl)butan-2-yl)-10,13-dimethyl-2,3,4,7,8,9,10,11,12,13,14,15,16,17-tetradecahydro-1H-cyclopenta[a]phenanthren-3-ol]
  IC50: < 250 nM

## CCC1(O)CCN(C(=O)CC[C@@H](C)[C@H]2CC[C@H]3[C@@H]4CC=C5C[C@@](C)(O)CC[C@]5(C)[C@H]4CC[C@]23C)CC1 [Example 371, (R)-1-(4-ethyl-4-hydroxypiperidin-1-yl)-4-((3S,8S,9S,10R,13R,14S,17R)-3-hydroxy-3,10,13-trimethyl-2,3,4,7,8,9,10,11,12,13,14,15,16,17-tetradecahydro-1H-cyclopenta[a]phenanthren-17-yl)pentan-1-one]
  IC50: 250 to 1000 nM

## C[C@H](CCC(=O)N(C)CC(=O)O)[C@H]1CC[C@H]2[C@@H]3CC=C4C[C@@H](O)CC[C@]4(C)[C@H]3CC[C@]12C [Example 108, N—((R)-4-((3S,8S,9S,10R,13R,14S,17R)-3-hydroxy-10,13-dimethyl-2,3,4,7,8,9,10,11,12,13,14,15,16,17-tetradecahydro-1H-cyclopenta[a]phenanthren-17-yl)pentanoyl)-N-methylglycine]
  IC50: > 10000 nM

## CNC(=O)[C@H]1CCN(C(=O)CC[C@@H](C)[C@H]2CC[C@H]3[C@@H]4CC=C5C[C@@H](O)CC[C@]5(C)[C@H]4CC[C@]23C)C1 [Example 536, (S)-1-((R)-4-((3S,8S,9S,10R,13R,14S,17R)-3-hydroxy-10,13-dimethyl-2,3,4,7,8,9,10,11,12,13,14,15,16,17-tetradecahydro-1H-cyclopenta[a]phenanthren-17-yl)pentanoyl)-N-methylpyrrolidine-3-carboxamide]
  IC50: 250 to 1000 nM

## C[C@H](Oc1cccnc1CO)[C@H]1CC[C@H]2[C@@H]3CC=C4C[C@@H](O)CC[C@]4(C)[C@H]3CC[C@]12C [Example 270, (3S,8S,9S,10R,13S,14S,17S)-17-((S)-1-((2-(hydroxymethyl)pyridin-3-yl)oxy)ethyl)-10,13-dim ethyl-2,3,4,7,8,9,10,11,12,13,14,15,16,17-tetradecahydro-1H-cyclopenta[a]phenanthren-3-ol]
  IC50: 250 to 1000 nM
